Experimental findings from patent US20250129012A1, “ANTI-INFLAMMATORY AND ANALGESIC COMPOUNDS AND USE THEREOF” (JIANGSU ATOM BIOSCIENCE AND PHARMACEUTICAL CO., LTD., priority 2021, published 2025) are described below.

Where two headings read alike, the source gives them in different places. Marks after values point to notes of the source that are not given here.

The test system of data set [1] is gouty arthritis rats (sodium urate, right ankle and knee joint cavities). The data set is described as follows: Pharmacodynamics experiment B on gouty arthritis rats: ankle swelling rate. Type of data set: in vivo, SD rats. The note with it: Rattus norvegicus, po, read-out: Swelling rate (ankle). The procedure, abridged:
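Male SD rats dosed by gavage at 0.6 mg/kg (0.5% CMC-Na suspension) daily for 7 days before and 3 days after injection of 0.2 mL sodium urate solution into right ankle and knee joints. Ankle circumference measured before and 2-48 h after modeling; swelling rate = swelling degree/baseline ×100%, mean values.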

For data set [2], the system named is ICR mice. The data set is described as follows: Acute toxicity test in mice by single administration. It is filed as in vivo. The note with it: 14 days, deaths/animals. As for the experimental part:
(§1) Compounds 34, 48, 55 and 58 were ground with 0.5% CMC-Na before administration, and prepared into a suspension of the corresponding concentration for gavage, with an administration volume of 0.1 mL/10 g.
(§2) ICR mice, SPF grade, weighing 18-20 g, 6-8 weeks old, were provided by Nantong University. The Laboratory Animal Production License was SCXK (Su) 2016-0010 and Laboratory Animal Use License was SYXK (Su) 2017-0035.
(§3) After overnight fasting, the drug was administered once by gavage in a volume of 0.1 mL/10 g. The normal group was given the corresponding volume of 0.5% CMC-Na solution according to body weight. The state of the animal was observed after administration, the animals were weighed daily and the number of deaths was recorded for 14 consecutive days.

Test in data set [3]: as above
It is filed as in vivo, ICR mice. The note with it: both sexes, ICR, mouse, in vivo, po; acute toxicity, mice, single gavage; read-out: Maximum tolerated dose (MTD). The method, then:
as §1, §2, §3

Data set [4] has as its system IL-6. Description: Inflammatory factor experiment B: IL-6 in knee synovial tissue (ELISA). Type of data set: in vivo, SD rats. Conditions: Rattus norvegicus, po, read-out: IL-6 percentage decrease %. (In general: An ELISA detects its analyte on a solid surface through an enzyme-linked reagent.)
The test system of data set [5] is IL-1β. Description: Inflammatory factor experiment B: IL-1β in knee synovial tissue (ELISA). Type of data set: in vivo, SD rats. Conditions: Rattus norvegicus, po, read-out: IL-1β percentage decrease %.
The test system of data set [6] is TNF-α. Description: Inflammatory factor experiment B: TNF-α in knee synovial tissue (ELISA). Type of data set: in vivo, SD rats. The note with it: Rattus norvegicus, po, read-out: TNF-α percentage decrease %.
For data set [7], the system named is gouty arthritis rats (sodium urate, right ankle and knee joint cavities). The data set is described as follows: Pharmacodynamics experiment B on gouty arthritis rats: gait score. It is filed as in vivo, SD rats. The note with it: for Gait Score: dose 0.6 mg/kg gavage, mean; for Gait versus model group, in words: compounds 0.6 mg/kg, colchicine 0.6 and 1.2 mg/kg. The method, boiled down: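 Male SD rats (180-220 g) received test compounds by gavage as 0.5% CMC-Na suspensions, once daily for 7 days before modeling and for 3 days afterward. Gouty arthritis was induced by injecting 0.2 mL sodium urate solution into the right ankle and knee joint cavities. Gait was graded 0-3 using modified Coderre criteria, and group mean scores were compared with the model group by ANOVA-Dunnett T-test (P<0.05).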

Data set [8] is described as follows: In vivo pharmacokinetics in SD rats. Conditions: Sprague-Dawley, rat; for half-life: plasma, read-out: t1/2 (converted). The method, boiled down:
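SD rats received compound intravenously (0.5 mg/mL solution) or by oral gavage (1 mg/mL, fasted overnight), both formulated in DMSO/Solutol HS15/saline. Plasma compound concentrations were measured by LC/MS/MS. Non-compartmental parameters were then calculated.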

[9] abbreviates: synovial tissue of knee joints, 48 h after modeling, dose 0.6 mg/kg.

In general, MTD refers to the highest dose tested that stayed within the study's limit of toxicity. As to `COC(=O)c1ccc2c(cc1=O)[C@@H](NC(C)=O)CCc1cc(OC)c(OC)c(OC)c1-2` [Compound 34, methyl (S)-7-acetamido-1,2,3-trimethoxy-9-oxo-5,6,7,9-tetrahydrobenzo[a]heptalen-10-carboxylate], the change in vivo at 0.6 mg/kg in data set [1] (2 h, dose 0.6 mg/kg gavage) was found to be 3.98%; in data set [1] (4 h, dose 0.6 mg/kg gavage), 8.32%; in data set [1] (8 h, dose 0.6 mg/kg gavage), 16.2%; in data set [1] (10 h, dose 0.6 mg/kg gavage), 17.3%; in data set [1] (24 h, dose 0.6 mg/kg gavage), 21.1%; in data set [1] (48 h, dose 0.6 mg/kg gavage), 9.96%. Moreover, the Mortality rate in data set [2] (single gavage dose 50 mg/kg), in data set [2] (single gavage dose 100 mg/kg), in data set [2] (single gavage dose 400 mg/kg) and in data set [2] (single gavage dose 600 mg/kg) was 0/6 throughout. In addition, in data set [3], the MTD at 14 days was > 600 mg/kg. In addition, the inhibition in vivo at 0.6 mg/kg in data set [4] (setting [9]) stood at 115%; in data set [5] (setting [9]), 93.1%; in data set [6] (setting [9]), 82.9%. Further, the “Gait Score” value is on record as 0 in data set [7] (2 h); 0 in data set [7] (4 h); 0** in data set [7] (8 h); 0.1** in data set [7] (10 h); 0 in data set [7] (24 h); 0 in data set [7] (48 h). In data set [7], the “Gait versus model group, in words” value was “significant improvement in gait occurred at different time points”.
A word on the AUC(0-inf): it is the area under the concentration-time curve extrapolated to infinity. As usually defined, the MRT inf is a mean duration of stay, worked out from the concentration-time curve. For orientation: Vd means a proportionality between amount in the body and measured concentration, not a real space. Low values mean confinement near the circulation, high ones extensive tissue distribution. By clearance is commonly meant the volume of plasma or blood freed of the substance per unit of time. A low value points to inefficient removal. By Cmax is commonly meant the maximum level reached in the sampled fluid or tissue. The Tmax is the time from dosing to the highest level. With `CCNC(=O)c1ccc2c(cc1=O)[C@@H](NC(C)=O)CCc1cc(OC)c(OC)c(OC)c1-2` [Compound 55, (S)-7-acetamido-1,2,3-trimethoxy-N-ethyl-9-oxo-5,6,7,9-tetrahydrobenzo[a]heptalen-10-carboxamide], the Mortality rate in data set [2] (single gavage dose 50 mg/kg), in data set [2] (single gavage dose 100 mg/kg), in data set [2] (single gavage dose 400 mg/kg) and in data set [2] (single gavage dose 600 mg/kg) was 0/6 in each case. Besides, the MTD at 14 days in data set [3] was > 600 mg/kg. Besides, the figures for the inhibition in vivo at 0.6 mg/kg in data set [4] (setting [9]), in data set [5] (setting [9]) and in data set [6] (setting [9]) were 128%, 133% and 86.4%, respectively. Besides, the F in data set [8] (in vivo, 10 mg/kg) is 115%. The AUC(0-inf) was 543 ng·h/mL in data set [8] (in vivo, iv, 1 mg/kg) and 6260 ng·h/mL in data set [8] (in vivo, po, 10 mg/kg). Besides, the mean residence time (MRT inf) worked out at 35.5 min in data set [8] (in vivo, iv, 1 mg/kg) and 163 min in data set [8] (in vivo, po, 10 mg/kg). Besides, the Vd in data set [8] (in vivo, iv, 1 mg/kg) was 1.1 L/kg. For the same molecule, in data set [8] (in vivo, iv, 1 mg/kg), the clearance is 31.2 mL/min/kg. In addition, in data set [8] (in vivo, po, 10 mg/kg), the Cmax amounted to 2040 ng/mL. For the same molecule, the Tmax in data set [8] (in vivo, po, 10 mg/kg) amounted to 20 min. The half-life was 121 min in data set [8] (po, Gavage - 10 mg/kg) and 36 min in data set [8] (Intravenous injection - 1 mg/kg).
For the molecule `COc1cc2c(c(OC)c1OC)-c1ccc(C#N)c(=O)cc1[C@@H](NC(C)=O)CC2` [Compound 38, (S)—N-(10-cyano-1,2,3-trimethoxy-9-oxo-5,6,7,9-tetrahydrobenzo[a]heptalen-7-yl)acetamide], the change in vivo at 0.6 mg/kg is 6.34% in data set [1] (2 h); 12.6% in data set [1] (4 h); 10.4% in data set [1] (8 h); 17.9% in data set [1] (10 h); 16.9% in data set [1] (24 h); 6.71% in data set [1] (48 h). The inhibition in vivo at 0.6 mg/kg turned out to be 69% in data set [4] (48 h), 102% in data set [5] (48 h) and 86.6% in data set [6] (48 h). Further, the “Gait Score” value in data set [7] (2 h) is reported as 0; in data set [7] (4 h), 0; in data set [7] (8 h), 0*; in data set [7] (10 h) it was 0*; in data set [7] (24 h), 0; in data set [7] (48 h) it was 0. In addition, the “Gait versus model group, in words” value in data set [7] was “significant improvement in gait occurred at different time points”.
`COc1cc2c(c(OC)c1OC)-c1ccc(-n3ccc(C)n3)c(=O)cc1[C@@H](NC(C)=O)CC2` [Compound 98, (S)—N-{1,2,3-trimethoxy-10-(3-methyl-1H-pyrazol-1-yl)-9-oxo-5,6,7,9-tetrahydrobenzo[a]heptalen-7-yl}acetamide]: the change in vivo at 0.6 mg/kg in data set [1] (2 h) amounted to 7.9%; in data set [1] (4 h), 13.4%; in data set [1] (8 h), 16.4%; in data set [1] (10 h) it was 17.7%; in data set [1] (24 h), 19.7%; in data set [1] (48 h) it was 8.9%. Besides, the inhibition in vivo at 0.6 mg/kg was 167% in data set [4] (48 h), 65% in data set [5] (48 h) and 98.9% in data set [6] (48 h). The “Gait Score” value was 0 in data set [7] (2 h); 0 in data set [7] (4 h); 0* in data set [7] (8 h); 0* in data set [7] (10 h); 0.1 in data set [7] (24 h); 0 in data set [7] (48 h). Moreover, the “Gait versus model group, in words” value in data set [7] was “significant improvement in gait occurred at different time points”.
Regarding `COc1cc2c(c(OC)c1OC)-c1ccc(S(N)(=O)=O)c(=O)cc1[C@@H](NC(C)=O)CC2` [Compound 69, (S)—N-[1,2,3-trimethoxy-9-oxo-10-aminosulfonyl-5,6,7,9-tetrahydrobenzo[a]heptalen-7-yl]acetamide], the change in vivo at 0.6 mg/kg in data set [1] (2 h) worked out at 5.65%; in data set [1] (4 h), 7.01%; in data set [1] (8 h), 14.7%; in data set [1] (10 h), 26.8%; in data set [1] (24 h), 19%; in data set [1] (48 h), 5.21%. Besides, the results for the inhibition in vivo at 0.6 mg/kg in data set [4] (48 h), in data set [5] (48 h) and in data set [6] (48 h) were 83%, 110% and 76.1%, respectively. Besides, the “Gait Score” value in data set [7] (2 h) was 0; in data set [7] (4 h), 0; in data set [7] (8 h), 0*; in data set [7] (10 h), 0*; in data set [7] (24 h), 0; in data set [7] (48 h) it was 0. The “Gait versus model group, in words” value in data set [7] is reported as “significant improvement in gait occurred at different time points”.
